# Results reported in patent publication EP0754455A1, “PHARMACEUTICAL COMPOSITIONS BASED ON AMINOMETHYLINDOLES AND THEIR THERAPEUTICAL APPLICATION AS NEUROPROTECTORS IN PARKINSON AND ALZHEIMER DISEASES” (CONSEJO SUPERIOR INVESTIGACIONES CIENTIFICAS (CSIC), priority 1995, dated 1996).
# Like-named read-outs stand apart in the source and are kept apart here.
# Key:
# dopamine carrier = molecular target: T1, dopamine carrier (Homo sapiens, UniProt Q01959); assay: Dopamine carrier inhibition in purified synaptosomes of human caudate; format: biochemical; conditions: human caudate synaptosomes, dopamine (DA) 0.1 µM; read-out: IC50(max)
# T1 construct: This assay was carried out in purified synaptosomes of human caudate; from tissue; host or cells: post-mortem human caudate, purified synaptosomes
# Description: This assay was carried out in purified synaptosomes of human caudate obtained using the same method as described by Rodríguez et al. 1987 Biochem Pharmac 36, 974-976.
# The studies were carried out with the same inhibitors used in the rat tissue. The dopamine (DA) concentration was 0.1 µM, a value chosen from the kinetic constants obtained.
# MAO-A [1] = molecular target: T2, MAO-A (Rattus norvegicus, UniProt P21396); assay: Kinetic parameters of suicide-type inhibition, MAO-A; format: biochemical, Sprague-Dawley rat
# T2 construct: human and rat tissue to obtain the isolated forms of monoamine oxidase A and B; from tissue
# T2 sequence (P21396 1-526): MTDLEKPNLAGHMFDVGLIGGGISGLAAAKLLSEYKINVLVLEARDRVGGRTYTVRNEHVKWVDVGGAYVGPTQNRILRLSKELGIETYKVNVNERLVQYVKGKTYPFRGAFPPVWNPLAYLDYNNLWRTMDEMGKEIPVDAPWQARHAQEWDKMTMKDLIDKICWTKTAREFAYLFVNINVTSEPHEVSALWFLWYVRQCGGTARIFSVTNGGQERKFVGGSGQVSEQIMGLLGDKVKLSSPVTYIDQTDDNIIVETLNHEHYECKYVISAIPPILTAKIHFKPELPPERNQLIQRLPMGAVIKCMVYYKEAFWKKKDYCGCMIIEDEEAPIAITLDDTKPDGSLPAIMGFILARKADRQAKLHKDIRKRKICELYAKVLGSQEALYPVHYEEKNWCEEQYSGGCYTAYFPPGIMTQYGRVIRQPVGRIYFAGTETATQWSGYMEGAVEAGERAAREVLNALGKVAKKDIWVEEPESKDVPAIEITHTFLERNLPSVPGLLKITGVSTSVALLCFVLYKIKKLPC
# From the text: Based on the apparent velocity constants of the first order (kapp) obtained for each inhibitor, calculations were made of the K1 and K^1c at (according to the method described by M. Avila et al. 1993, Biochem Pharmac 45, 2231-2237). K1 is the affinity constant of the first stage of the reaction and K1 MAO-A / K1 MAO-B the expression of the selectivity.
# K^1cat is the velocity constant for the formation of the covalent irreversible complex during the second stage of the process. To compare the values of these constants towards the two forms of MAO, we express the inhibition efficacy as the ratio K^1cat/K1. The value of these constants (see Tables 2 and 3), is the result of three different experiments, with their corresponding SEM.
# MAO-A [2] = molecular target: T3, MAO-A (Homo sapiens, UniProt P21397); assay: MAO-A inhibition in homogenated human cerebral cortex; format: biochemical
# T3 construct: performed using homogenated human cerebral cortex obtained from autopsies; from tissue; host or cells: post-mortem human cerebral cortex homogenate
# T3 sequence (P21397 1-527): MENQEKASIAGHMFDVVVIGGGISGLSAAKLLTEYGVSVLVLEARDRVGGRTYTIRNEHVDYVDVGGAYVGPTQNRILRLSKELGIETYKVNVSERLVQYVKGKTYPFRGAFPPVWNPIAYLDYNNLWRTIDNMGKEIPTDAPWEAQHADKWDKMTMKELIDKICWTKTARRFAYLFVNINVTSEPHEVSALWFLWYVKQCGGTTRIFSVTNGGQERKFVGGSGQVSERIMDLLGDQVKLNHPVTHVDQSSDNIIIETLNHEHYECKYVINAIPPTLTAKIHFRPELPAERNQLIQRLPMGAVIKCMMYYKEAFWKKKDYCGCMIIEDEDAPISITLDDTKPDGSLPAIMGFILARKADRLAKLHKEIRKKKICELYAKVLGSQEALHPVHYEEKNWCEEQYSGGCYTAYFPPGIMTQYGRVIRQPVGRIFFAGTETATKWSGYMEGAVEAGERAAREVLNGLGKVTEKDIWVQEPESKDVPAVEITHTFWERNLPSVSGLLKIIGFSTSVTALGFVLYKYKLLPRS
# From the text: They were provided by Dr. Fco Javier González Oliván (Forensic Anatomic Institute of the Hospital Clínico Provincial in Barcelona).
# MAO-A [3] = molecular target: T2, MAO-A; assay: biochemical; format: biochemical, Sprague-Dawley rat
# Description: The mitochondrial portion of Sprague-Dawley rat was used to determine the MAO-A and MAO-B activity.
# Determinations were made of the comparative MAO-A and MAO-B activity inhibition curves of the various compounds under study at time 0 and 30 min. by measuring the remaining activity to 5-HT and PEA as substrates.
# MAO-A [4] = molecular target: T4, MAO-A (Mus musculus, UniProt Q64133); assay: Ex vivo inhibition of brain MAO-A after i.p. administration; format: in vivo, C57/BL mice; conditions: mouse brain homogenate 2 hours after i.p., l-deprenyl 10 mg/Kg, tested compound 4 mg/Kg
# T4 construct: the brains homogenised in potassium phosphate buffer 50 mM, pH 7.2; from tissue; host or cells: C57/BL mouse brain homogenate
# T4 sequence (Q64133 1-526): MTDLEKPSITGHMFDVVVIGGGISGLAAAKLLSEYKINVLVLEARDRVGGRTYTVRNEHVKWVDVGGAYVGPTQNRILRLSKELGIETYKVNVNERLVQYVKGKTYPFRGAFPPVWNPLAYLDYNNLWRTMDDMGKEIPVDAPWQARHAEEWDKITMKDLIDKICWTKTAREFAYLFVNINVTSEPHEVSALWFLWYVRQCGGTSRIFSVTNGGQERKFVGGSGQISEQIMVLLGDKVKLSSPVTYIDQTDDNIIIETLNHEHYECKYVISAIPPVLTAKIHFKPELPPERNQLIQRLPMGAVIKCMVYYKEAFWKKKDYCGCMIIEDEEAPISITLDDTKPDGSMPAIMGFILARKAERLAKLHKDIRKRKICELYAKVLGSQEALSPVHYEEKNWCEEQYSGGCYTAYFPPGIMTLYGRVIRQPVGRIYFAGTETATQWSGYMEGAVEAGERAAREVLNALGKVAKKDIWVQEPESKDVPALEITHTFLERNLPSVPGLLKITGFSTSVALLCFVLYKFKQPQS
# Description: The pharmacological assays were carried out on C57/BL mice. These animals are sensitive to the induction of the symptomatology of Parkinson's disease through the action of MPTP.
# The animals were sacrificed by decapitation after 2 hours and the brains homogenised in potassium phosphate buffer 50 mM, pH 7.2. Determinations were made of the MAO-A and MAO-B activity in each case using radiometric methods.
# T1 sequence (Q01959 whole entry): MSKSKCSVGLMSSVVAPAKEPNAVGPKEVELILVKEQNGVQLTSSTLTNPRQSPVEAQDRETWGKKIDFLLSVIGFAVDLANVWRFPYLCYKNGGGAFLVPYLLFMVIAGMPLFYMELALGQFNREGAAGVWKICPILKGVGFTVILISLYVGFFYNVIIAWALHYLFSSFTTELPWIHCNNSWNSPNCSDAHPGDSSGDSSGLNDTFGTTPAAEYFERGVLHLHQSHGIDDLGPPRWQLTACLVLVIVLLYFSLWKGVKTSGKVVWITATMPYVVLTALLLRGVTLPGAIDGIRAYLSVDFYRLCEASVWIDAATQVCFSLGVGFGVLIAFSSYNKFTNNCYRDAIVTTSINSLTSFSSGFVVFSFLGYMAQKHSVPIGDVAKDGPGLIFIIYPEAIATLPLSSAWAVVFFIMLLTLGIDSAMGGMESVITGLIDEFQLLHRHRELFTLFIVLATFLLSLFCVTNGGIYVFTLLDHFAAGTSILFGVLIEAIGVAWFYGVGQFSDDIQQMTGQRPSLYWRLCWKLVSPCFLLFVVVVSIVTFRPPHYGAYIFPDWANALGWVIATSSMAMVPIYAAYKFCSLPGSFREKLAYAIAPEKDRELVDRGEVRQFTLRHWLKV
smiles,measurement,setting,value
C#CCNCc1cc2cc(OCc3ccccc3)ccc2[nH]1 [FA-73],IC50,dopamine carrier,360 nM
same,Ki,"MAO-A [1]; MAO-A (A..), affinity constant of the first stage, three experiments ± SEM, read-out: K1",800 nM
same,K^1cat / K1(10^-3),"MAO-A [1]; MAO-A, inhibition efficacy",0.1 10^-3
same,K^1cat,"MAO-A [1]; MAO-A, velocity constant for formation of the covalent irreversible complex, ± SEM",0.087 ± 0.006 min⁻¹
same,IC50,MAO-A [2],20000 nM
same,IC50,MAO-A [3],15800 nM
same,dependence of the inhibition on the incubation time,MAO-A [3]; MAO-A,drop in the formation of product as a function of the time of incubation
same,irreversibility of the inhibition process,"MAO-A [3]; MAO-A, inhibitor concentrations close to the IC50",irreversibility
same,IC50,"MAO-A [3]; read-out: IC50 30 min., MAO-A (lines A..), substrate 5-HT, 30 min incubation, rat mitochondria",1250 nM
same,remaining activity at 4 mg/kg,"MAO-A [4]; ip, control = 100%",96.2%
same,MAO-A ACTIVITY,MAO-A [4]; control 485,467
